According to paper PMC8010461, “The acyltransferase PMAT1 malonylates brassinolide glucoside” (The Journal of Biological Chemistry, 2021):

Experiments:
UGT73C5 [1] = target: T1, UGT73C5 (Arabidopsis thaliana, UniProt Q9ZQ94); test: preparative in vitro glucosylation, product purified by HPLC; format: biochemical; conditions: co-substrate UDP-glucose; glucosylation at C-23
T1 construct: recombinant GST-tagged UGT73C5
T1 sequence (Q9ZQ94 1-495): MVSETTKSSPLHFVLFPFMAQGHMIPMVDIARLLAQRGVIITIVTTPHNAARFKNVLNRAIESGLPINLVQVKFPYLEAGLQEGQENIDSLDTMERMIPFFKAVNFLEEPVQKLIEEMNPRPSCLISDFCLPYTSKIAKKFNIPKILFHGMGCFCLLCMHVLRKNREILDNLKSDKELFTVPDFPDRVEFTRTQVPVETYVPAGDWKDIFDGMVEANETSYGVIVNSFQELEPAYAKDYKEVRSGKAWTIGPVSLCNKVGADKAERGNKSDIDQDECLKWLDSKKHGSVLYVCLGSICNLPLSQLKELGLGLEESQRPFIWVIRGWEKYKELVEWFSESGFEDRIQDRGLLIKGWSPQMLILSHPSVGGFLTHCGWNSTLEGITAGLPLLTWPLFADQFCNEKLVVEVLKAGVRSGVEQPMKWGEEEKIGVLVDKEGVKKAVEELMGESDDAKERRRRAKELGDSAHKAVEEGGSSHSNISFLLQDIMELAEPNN

UGT73C5 [2] = target: T1, UGT73C5; test: in vitro glucosylation, product confirmed by HR-MS and HR-MS/MS; format: biochemical; conditions: reference compound synthesis; glucosylation at C-23
purified protein = substrate: CC(C)[C@@H](C)[C@@H](O[C@@H]1O[C@H](CO)[C@@H](O)[C@H](O)[C@H]1O)[C@H](O)[C@@H](C)[C@H]1CC[C@H]2[C@@H]3COC(=O)[C@H]4C[C@H](O)[C@H](O)C[C@]4(C)[C@H]3CC[C@]12C; test: purified protein; format: biochemical, Arabidopsis thaliana; conditions: co-substrate malonyl-CoA 2.5 mM, 50 mM sodium phosphate pH 8.0, 30 °C

CC(C)[C@@H](C)[C@@H](O)[C@H](O)[C@@H](C)[C@H]1CC[C@H]2[C@@H]3COC(=O)[C@H]4C[C@H](O)[C@H](O)C[C@]4(C)[C@H]3CC[C@]12C [24-epiBL]
preparative in vitro glucosylation, product purified by HPLC (UGT73C5 [1]): 24-epiBL (epiBL) as an acceptor were carried out, and the resulting epiBL-23-O-Glc was purified

CC(C)[C@H](C)[C@@H](O)[C@H](O)[C@@H](C)[C@H]1CC[C@H]2[C@@H]3COC(=O)[C@H]4C[C@H](O)[C@H](O)C[C@]4(C)[C@H]3CC[C@]12C [brassinolide]
in vitro glucosylation, product confirmed by HR-MS and HR-MS/MS (UGT73C5 [2]): BL-23-O-MalGlc as analytical reference, which were generated in vitro with recombinant UGT73C5 and PMAT1

B1: PMAT1 (Arabidopsis thaliana) (protein)
chain: MVNEEMESSLKVIDVARVTPSNSDSSESLTLPLTFFDLLWYKLHAVERVIFYKLTDASRPFFDSVIVPNLKTSLSSSLSHYLPLAGKLVWEPLDPKPKIVYTPNDAVSFTVAESNADFSRLTGKEPFPTTELYPLVPELHVSDDSASAVSFQVTLFPNQGFCISVNAHHAVLDGKTTTNFLKSWARTCKNQDSFLPQDLIPVYDRTVIKDPMDLDTKILNAWHRVAKVFTGGKEPENPKSLKLLWSPEIGPDVFRYTLNLTREDIQKLRERLKKESSSSSVSSSPKELRLSTFVIVYSYALTCLIKARGGDPSRPVGYGFAVDCRSLMVPPVPSSYFGNCVSACFKMSLTAETFMSEEGFLAAARMVSDSVEALDENVALKIPEILEGFTTLSPGTQVLSVAGSTRFGVYGLDFGWGRPEKVVVVSIDQGEAISFAESRDGSGGVELGFSLKKHEMDVLVDLLHKGLEN
notes: full ORF, GST fusion (pGEX-4T-2-PMAT1), E. coli BL21, glutathione Sepharose purified; GST tag kept
Km (purified protein; 20 min): 235 µM

B2: At5MAT (Arabidopsis thaliana) (protein)
chain: MVNFNSAVNILEVVQVSPPSSNSLTLPLTYFDLGWLKLHPVDRVLFYHVPELTRSSLISKLKSSLSATLLHYLPLAGRLVWDSIKTKPSIVYSPDDKDAVYLTVAESNGDLSHLSGDEPRPATEFHSLVPELPVSDESARVLAVQVTFFPNQGFSLGVTAHHAVLDGKTTAMFLKAWAHNCKQEQEALPHDLVPSLDRIIVQDPTGLETKLLNRWISASNNKPSLKLFPSKIIGSDILRVTYRLTREDIKKLRERVETESHAKQLRLSTFVITYAYVITCMVKMRGGDPTRFVCVGFASDFRSRLNPPLPPTFFGNCIVGSGDFDVKAEPILEEGEGKGFITAVETLTGWVNGLCPENIEKNMLLPFEAFKRMEPGRQMISVAGSTRLGIYGSDFGWGKPVKVEIVTIDKDASVSLSESGDGSGGVEVGVCLKKDDVERFGSLFSIGLE
notes: full ORF, GST fusion (pGEX-4T-2-At5MAT), E. coli BL21, glutathione Sepharose purified; GST tag kept
Km (purified protein; 240 min): 71 µM
